Test system: Propionibacterium acnes (P. acnes)-induced dermatitis
Assay: P. acnes-induced acute dermatitis, ear thickness
Format: in vivo, rat
Conditions: rats, intradermal P. acnes 0.14 mg/ear; JHT 0.5 g/kg p.o. 1 h before and 6 h after injection; PDN 10 mg/kg p.o.; P. acnes + DW group 181%; N = 5
Experimental: Figure 1 Suppression of Propionibacterium acnes (P. acnes)-induced dermatitis in rats by jumihaidokuto (JHT) administration. Dermatitis was induced in rats by injection of P. acnes (0.14 mg/50 μL/ear) into the pinna. The ear thickness was measured at 0 and 24 h after the injection. JHT suspended in distilled water (DW) was administered orally at a dose of 0.5 g/10 mL/kg at 1 h before and 6 h after the injection. Prednisolone (PDN, 10 mg/10 mL/kg) was used as a reference drug. Data represent the relative ear thickness, which was standardized against the previous values before the injection. N = 5. ^## p < 0.01 vs. saline + DW group (Student’s t-test), ** p < 0.01 significant vs. P. acnes + DW group (Dunnett’s test). […]
P. acnes-induced dermatitis was induced using the procedure described previously with a minor modification. […] The ear thickness was measured using a dial thickness gauge micrometer (Ozaki MFG Co., Tokyo, Japan) at 0 and 24 h after the injection. All data on the increase in ear thickness were expressed as a percentage of the previous value in each individual rat, and as the mean ± S.E. Statistical significance was evaluated by one-way analysis of variance, followed by the Dunnett’s multiple comparisons or unpaired Student’s t-test. […]

## C[C@]12C=CC(=O)C=C1CC[C@@H]1[C@@H]2[C@@H](O)C[C@@]2(C)[C@H]1CC[C@]2(O)C(=O)CO [PDN, Prednisolone]
  increase in ear thickness in a 24 h period compared with that prior to injection: 123%

From paper PMC6332076, “Plasma Pharmacokinetics of Polyphenols in a Traditional Japanese Medicine, Jumihaidokuto, Which Suppresses Propionibacterium acnes-Induced Dermatitis in Rats” (Molecules, 2015)
